Laboratory results taken from PMC11094793, “Discovery of LLC0424 as a Potent and Selective in Vivo NSD2 PROTAC Degrader” (Journal of Medicinal Chemistry, 2024).

Key:
SEM cells = assay: Proliferation assay (CellTiter-Glo, 9 days), SEM; format: cell-based, human; conditions: 5 μM (Fig 6E) or 2 μM (Fig S4A)
Procedure: 2 × 10^3 cells per well were seeded in 5 replicates into 96-well plates and treated with 5 μM of the compound. Every 4 days, we added the compound with 5 μL of the 20* compound-containing mixture, reaching 1*concentration. Cell proliferation was evaluated by CellTiter-Glo assay (Promega).

[1] = tested on: CRBN neo-substrates IKZF1, IKZF3, GSPT1, and CK-1α; assay: Selectivity immunoblotting in SEM cells: CRBN neo-substrates; format: cell-based, human; conditions: 2 μM, 8 h
Procedure: We conducted a global proteomic assay using tandem mass tags (TMT) labeled mass-spectrometry to unbiasedly quantify the protein change upon LLC0424 treatment in VCaP and RPMI-8402 cells. […] We further used SEM cell line to cross-validate the selectivity of LLC0424 for NSD2 over NSD1 and NSD3 as well as CRBN neo-substrates IKZF1, IKZF3, GSPT1, and CK-1α using immunoblotting. […] When we increased the treatment time of LLC0424 in SEM cells, we observed mild decrease of GSPT1 from 12 h (SI, Figure S3F).
After treatment, the cultured cells were collected and rinsed with phosphate-buffered saline (PBS) in room temperature. The cells were treated with RIPA buffers (ThermoFisher Scientific) supplemented with Halt Protease and Phosphatase Inhibitor Cocktail (ThermoFisher Scientific). After sonication and centrifugation, the total amount of protein in the cell lysates was measured by Pierce Bovine Serum Albumin Standard Pre-Diluted Set (ThermoFisher Scientific). After mixed with LDS-sample buffer (Invitrogen) supplemented with Sample Reducing Agent (Invitrogen) and heated in 70 °C for 10 min, equal amount of protein was loaded into NuPAGE 4–12%, Bis-Tris Protein Gel (ThermoFisher Scientific) or NuPAGE 3–8%, Tris-Acetate Protein Gel (ThermoFisher Scientific), and blotted with primary antibodies. […]

[2] = tested on: NSD2-overexpressed SEM cells; assay: Viability of NSD2-overexpressed versus parental SEM cells; format: cell-based, human; conditions: 2 μM LLC0424, 9 days, CTG assay
Procedure: NSD2 is the primary methyltransferase that transfers dimethyl to H3K36 in ALL with NSD2 gain-of-function mutation. Therefore, the effects of LLC0424 on H3K36me2 was evaluated in SEM and RPMI-8402 cells. […] Meanwhile, LLC0424 treatment also led to downregulation of H3K36Me2 in RPMI-8402 cells within 24 h (Figure 6B). […] We also conducted a colony formation assay to evaluate the effect of LLC0424 on the stem cell-like property of the leukemia cells. […]
Figure S4. […] (A) SEM or RPMI-8402 cells were treated with 2 µM LLC0424, degrader 6, degrader 7, or DMSO for 9 days and quantified for cell viability by CellTiter-Glo (CTG) assay at different days. Data are reported as the mean of five independent experiments ± SD; (B) RNA sequencing of SEM cells treated with LLC0424N or DMSO; (C) Immunoblotting of NSD2, and H3 in parental and NSD2-overexpression SEM cell lines; (D) parental or NSD2 overexpression SEM cells were treated with DMSO or 2 µM LLC0424 for 9 days and quantified for cell viability by CTG assay. Data are reported as the mean of four independent experiments ± SD; (E) VCaP cells and 22RV1 cells were treated with DMSO, 2 µM LLC0424, or 2 µM LLC0424N for 18 days and quantified for cell viability by CTG assay at different days. […]

[3] = target: T1, NSD2 (both long and short isoforms) (Homo sapiens, UniProt O96028); assay: NSD2 degradation by immunoblotting in ALL cell lines RPMI-8402 and SEM (NSD2 E1099K); format: cell-based; conditions: for Dmax / DC50: 24 h
T1 sequence (O96028 211-350 limits assumed): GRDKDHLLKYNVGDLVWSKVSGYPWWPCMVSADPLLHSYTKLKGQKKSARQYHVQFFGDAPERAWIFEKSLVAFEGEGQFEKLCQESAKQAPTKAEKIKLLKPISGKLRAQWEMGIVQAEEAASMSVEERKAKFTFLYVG
Procedure: As previous studies have shown that ALL cell lines with NSD2 gain-of-function mutation are more dependent on NSD2 regarding H3K36me2 level and cell proliferation,[7],[8] we further characterized LLC0424 in ALL cell lines with NSD2 E1099K gain-of-function mutation (RPMI-8402 and SEM). We first treated these cells with LLC0424 with different concentrations for 24 h. […] In addition, we compared the degradation efficiency of LLC0424 with the two previously published NSD2 degraders 6 and 7 at different concentrations and time points.
After treatment, the cultured cells were collected and rinsed with phosphate-buffered saline (PBS) in room temperature. The cells were treated with RIPA buffers (ThermoFisher Scientific) supplemented with Halt Protease and Phosphatase Inhibitor Cocktail (ThermoFisher Scientific). After sonication and centrifugation, the total amount of protein in the cell lysates was measured by Pierce Bovine Serum Albumin Standard Pre-Diluted Set (ThermoFisher Scientific). After mixed with LDS-sample buffer (Invitrogen) supplemented with Sample Reducing Agent (Invitrogen) and heated in 70 °C for 10 min, equal amount of protein was loaded into NuPAGE 4–12%, Bis-Tris Protein Gel (ThermoFisher Scientific) or NuPAGE 3–8%, Tris-Acetate Protein Gel (ThermoFisher Scientific), and blotted with primary antibodies. After incubated with HRP-conjugated secondary antibodies, the membranes were developed with ECL Prime Western Blotting Detection Reagent (cytiva) and imaged on Odyssey Fc Imager (LiCOR Biosciences).

SMILES: O=C1CCC(N2C(=O)c3ccc(N4CCC(NC(=O)c5ccc(NC(=O)c6ccc(CN(C(=O)c7ccc8c(c7)OCC(=O)N8)C7CC7)cc6)cc5)CC4)cc3C2=O)C(=O)N1 (stereo not shown) [compound 10l, N-Cyclopropyl-N-(4-((4-((1-(2-(2,6-dioxopiperidin-3-yl)-1,3-dioxoisoindolin-5-yl)piperidin-4-yl)carbamoyl)phenyl)carbamoyl)benzyl)-3-oxo-3,4-dihydro-2H-benzo[b][1,4]oxazine-7-carboxamide]
- cell growth on treatment for 9 days (SEM cells): significantly inhibited
- CRBN neo-substrates protein level [1]: remained unchanged
- cell viability in NSD2-overexpressed versus parental SEM cells [2]: significantly higher in NSD2-overexpressed SEM cells
- Dmax ([3]; RPMI 8402, RPMI-8402 cells): > 96%
- Dmax ([3]; RPMI 8402, SEM cells): > 78%
- time at which NSD2 degradation started ([3]; RPMI-8402 and SEM cells, 2 μM): 4 h
- time to significant NSD2 degradation ([3]; RPMI-8402 and SEM cells, 2 μM): ≤ 8 h
- NSD2 degradation, comparison of degraders ([3]; RPMI-8402 and SEM cells, 0.5 and 2 μM for 24 h or 2 μM for 12 and 24 h): significant NSD2 degradation
- DC50 ([3]; RPMI-8402 cells): 20 nM
- DC50 ([3]; SEM cells): 110 nM
